Measurements published in ChEMBL document CHEMBL6127107, “Oleanolic acid derivatives against drug-resistant bacteria and fungi by multi-targets to avoid drug resistance” (Eur J Med Chem, 2024).
Values after ≈ are worked out from the molar mass of the structure shown.

Columns and labels:
Format in all cases: functional
Staphylococcus aureus [1] = assay: Antimicrobial activity against Staphylococcus aureus 29
Escherichia coli = assay: Antimicrobial activity against Escherichia coli
Pseudomonas aeruginosa = assay: Antimicrobial activity against Pseudomonas aeruginosa
Staphylococcus aureus [2] = assay: Antimicrobial activity against Staphylococcus aureus 10
Enterococcus faecalis = assay: Antimicrobial activity against vancomycin resistant Enterococcus faecalis ATCC 51299
Staphylococcus aureus [3] = assay: Antimicrobial activity against methicillin-resistant Staphylococcus aureus 011
Staphylococcus aureus [4] = assay: Antimicrobial activity against Staphylococcus aureus 31
Candida albicans = assay: Antimicrobial activity against fluconazole-resistant Candida albicans
Staphylococcus aureus [5] = assay: Antimicrobial activity against methicillin-resistant Staphylococcus aureus 003

For `CC(=O)O[C@H]1CC[C@]2(C)[C@H]3CC=C4[C@@H]5CC(C)(C)CC[C@]5(C(=O)N(C)C)CC[C@@]4(C)[C@]3(C)CC[C@H]2C1(C)C`, the MIC (Staphylococcus aureus [1]) was greater than 64 µg/mL, the MIC (Escherichia coli) was greater than 64 µg/mL and the MIC (Pseudomonas aeruginosa) was greater than 64 µg/mL. It also gave an MIC (Staphylococcus aureus [2]) greater than 64 µg/mL, an MIC (Enterococcus faecalis) greater than 64 µg/mL and an MIC (Staphylococcus aureus [3]) greater than 64 µg/mL. The MIC (Staphylococcus aureus [4]) was greater than 64 µg/mL, the MIC (Candida albicans) was greater than 64 µg/mL and the MIC (Staphylococcus aureus [5]) was greater than 64 µg/mL.

In the case of `C[C@H]1[C@H](C)CC[C@]2(C)CC[C@]3(C)C(=CC[C@@H]4[C@@]5(C)CC[C@H](O)C(C)(C)[C@@H]5CC[C@]43C)[C@H]12`, the MIC (Enterococcus faecalis) is reported as greater than 512 µg/mL and the MIC (Staphylococcus aureus [5]) is reported as greater than 512 µg/mL.

`C[C@H]1[C@H](C)CC[C@]2(C(=O)O)CC[C@]3(C)C(=CC[C@@H]4[C@@]5(C)CC[C@H](O)C(C)(C)[C@@H]5CC[C@]43C)[C@H]12` [URSOLIC ACID] showed an MIC (Enterococcus faecalis) of 64 µg/mL (≈ 140 µM) and an MIC (Staphylococcus aureus [5]) of 64 µg/mL (≈ 140 µM).

With `CCCC(=O)O[C@H]1CC[C@]2(C)[C@H]3CC=C4[C@@H]5CC(C)(C)CC[C@]5(C(=O)O)CC[C@@]4(C)[C@]3(C)CC[C@H]2C1(C)C` the MIC (Staphylococcus aureus [1]) was greater than 64 µg/mL, the MIC (Escherichia coli) was greater than 64 µg/mL and the MIC (Pseudomonas aeruginosa) was greater than 64 µg/mL. For the same compound, the MIC (Staphylococcus aureus [2]) was greater than 64 µg/mL, the MIC (Enterococcus faecalis) was greater than 64 µg/mL and the MIC (Staphylococcus aureus [3]) was greater than 64 µg/mL. For the same compound, the MIC (Staphylococcus aureus [4]) was greater than 64 µg/mL, the MIC (Candida albicans) was greater than 64 µg/mL and the MIC (Staphylococcus aureus [5]) was greater than 64 µg/mL.

`CN(C)CC(O)CO[C@H]1CC[C@]2(C)[C@H]3CC=C4[C@@H]5CC(C)(C)CC[C@]5(C(=O)O)CC[C@@]4(C)[C@]3(C)CC[C@H]2C1(C)C` (some centres not stated) showed an MIC (Staphylococcus aureus [1]) greater than 64 µg/mL, an MIC (Escherichia coli) greater than 64 µg/mL and an MIC (Pseudomonas aeruginosa) greater than 64 µg/mL. The MIC (Staphylococcus aureus [2]) was greater than 64 µg/mL, the MIC (Enterococcus faecalis) was greater than 64 µg/mL and the MIC (Staphylococcus aureus [3]) was greater than 64 µg/mL. For the same compound, the MIC (Staphylococcus aureus [4]) was greater than 64 µg/mL, the MIC (Candida albicans) was greater than 64 µg/mL and the MIC (Staphylococcus aureus [5]) was greater than 64 µg/mL.

`CCC(=O)O[C@H]1CC[C@]2(C)[C@H]3CC=C4[C@@H]5CC(C)(C)CC[C@]5(C(=O)O)CC[C@@]4(C)[C@]3(C)CC[C@H]2C1(C)C` gave an MIC (Staphylococcus aureus [1]) greater than 64 µg/mL, an MIC (Escherichia coli) greater than 64 µg/mL and an MIC (Pseudomonas aeruginosa) greater than 64 µg/mL. It also gave an MIC (Staphylococcus aureus [2]) greater than 64 µg/mL, an MIC (Enterococcus faecalis) greater than 64 µg/mL and an MIC (Staphylococcus aureus [3]) greater than 64 µg/mL. The MIC (Staphylococcus aureus [4]) was greater than 64 µg/mL, the MIC (Candida albicans) was greater than 64 µg/mL and the MIC (Staphylococcus aureus [5]) was greater than 64 µg/mL.

`CC1(C)CC[C@]2(C(=O)O)CC[C@]3(C)C(=CC[C@@H]4[C@@]5(CO)C[C@@H](O)[C@H](O)[C@@](C)(CO)[C@@H]5CC[C@]43C)[C@@H]2C1` gave an MIC (Enterococcus faecalis) greater than 512 µg/mL and an MIC (Staphylococcus aureus [5]) greater than 512 µg/mL.

`C[C@H]1[C@H](C)CC[C@]2(C)CC[C@]3(C)C(=CC(=O)[C@@H]4[C@@]5(C)CC[C@@H](O)[C@](C)(C(=O)O)[C@@H]5CC[C@]43C)[C@H]12` [11-KETO BOSWELLIC ACID] showed an MIC (Enterococcus faecalis) of 32 µg/mL (≈ 68 µM) and an MIC (Staphylococcus aureus [5]) of 16 µg/mL (≈ 34 µM).

`C[C@H]1[C@H](C)CC[C@]2(C(=O)O)CC[C@]3(C)C(=CC[C@@H]4[C@@]5(C)CCC(=O)C(C)(C)[C@@H]5CC[C@]43C)[C@H]12` [URSONIC ACID] gave an MIC (Enterococcus faecalis) of 256 µg/mL (≈ 563 µM) and an MIC (Staphylococcus aureus [5]) of 128 µg/mL (≈ 282 µM).

`CC1(C)CC[C@]2(C(=O)O)CC[C@]3(C)C(=CC[C@@H]4[C@@]5(C)CC[C@H](OC(=O)c6ccccc6)C(C)(C)[C@@H]5CC[C@]43C)[C@@H]2C1` gave an MIC (Staphylococcus aureus [1]) greater than 64 µg/mL, an MIC (Escherichia coli) greater than 64 µg/mL and an MIC (Pseudomonas aeruginosa) greater than 64 µg/mL. For the same compound, the MIC (Staphylococcus aureus [2]) was greater than 64 µg/mL, the MIC (Enterococcus faecalis) was greater than 64 µg/mL and the MIC (Staphylococcus aureus [3]) was greater than 64 µg/mL. It also gave an MIC (Staphylococcus aureus [4]) greater than 64 µg/mL, an MIC (Candida albicans) greater than 64 µg/mL and an MIC (Staphylococcus aureus [5]) greater than 64 µg/mL.

For `CC(=O)O[C@H]1CC[C@]2(C)[C@H]3CC=C4[C@@H]5CC(C)(C)CC[C@]5(C(=O)NCCc5ccccc5)CC[C@@]4(C)[C@]3(C)CC[C@H]2C1(C)C`, the MIC (Staphylococcus aureus [1]) was greater than 64 µg/mL, the MIC (Escherichia coli) was greater than 64 µg/mL and the MIC (Pseudomonas aeruginosa) was greater than 64 µg/mL. The MIC (Staphylococcus aureus [2]) was greater than 64 µg/mL, the MIC (Enterococcus faecalis) was greater than 64 µg/mL and the MIC (Staphylococcus aureus [3]) was greater than 64 µg/mL. The MIC (Staphylococcus aureus [4]) was greater than 64 µg/mL, the MIC (Candida albicans) was greater than 64 µg/mL and the MIC (Staphylococcus aureus [5]) was greater than 64 µg/mL.

For `C[C@@H]1CC[C@]2(C(=O)O)CC[C@]3(C)C(=CC[C@@H]4[C@@]5(C)CC[C@H](O)[C@@](C)(CO)[C@@H]5CC[C@]43C)[C@@H]2[C@]1(C)O` [ROTUNDIC ACID], the MIC (Enterococcus faecalis) was 256 µg/mL (≈ 524 µM) and the MIC (Staphylococcus aureus [5]) was 128 µg/mL (≈ 262 µM).

In the case of `CC1(C)CC[C@]2(C(=O)O)CC[C@]3(C)C(=CC[C@@H]4[C@@]5(C)CC[C@H](O[C@@H]6O[C@H](C(=O)O)[C@@H](O)[C@H](O[C@@H]7OC[C@@H](O)[C@H](O)[C@H]7O)[C@H]6O)C(C)(C)[C@@H]5CC[C@]43C)[C@@H]2C1`, the MIC (Enterococcus faecalis) is reported as greater than 512 µg/mL and the MIC (Staphylococcus aureus [5]) is reported as greater than 512 µg/mL.

With `CC1(C)C(OC(=O)c2ccccc2)CC[C@]2(C)C3=C([C@@H](O)C[C@@H]12)[C@@]1(C)CC[C@@]2(C)CC[C@@](C)(COC(=O)c4ccccc4)C[C@H]2[C@]1(C)CC3` (some centres not stated) the MIC (Enterococcus faecalis) was greater than 512 µg/mL and the MIC (Staphylococcus aureus [5]) was greater than 512 µg/mL.

In the case of `C[C@H]1[C@H](C)CC[C@]2(C(=O)O)CC[C@]3(C)C(=CC[C@@H]4[C@@]5(C)C[C@@H](O)[C@H](O)[C@@](C)(CO)[C@@H]5CC[C@]43C)[C@H]12` [ASIATIC ACID], the MIC (Enterococcus faecalis) is reported as 32 µg/mL (≈ 65.5 µM) and the MIC (Staphylococcus aureus [5]) is reported as 16 µg/mL (≈ 32.7 µM).
